Source: patent US9115149B2, “Heterocyclic compounds as inhibitors of fatty acid biosysnthesis for bacterial infections” (Vitas Pharma Research Private Limited, priority 2011, dated 2015)
≈ marks a conversion by molar mass, not a printed value. Where two headings read alike, the source gives them in different places.

Legend:
[1] = tested on: Staphylococcus aureus (ATCC29213); assay: MIC by microbroth dilution, methicillin sensitive S. aureus; format: cell-based; conditions: read-out: Minimum inhibitory concentration (MIC) Staphylococcus aureus (ATCC29213)
Description: (§1) Shown below are the biological activities of representative compounds of the invention. The compounds were tested by the microbroth dilution method (National committee for Clinical Laboratory Standards, M07-A8, Volume 29, 2009) to determine the Minimum Inhibitory Concentration (MIC) against Methicillin sensitive and resistant Staphylococcus aureus. The MICs in the presence of 10% BSA was also tested. Further, select compounds were tested for metabolic stability using mouse liver microsomes based on published protocols (Journal of Biological Sciences, 2008, 8, 1110-1114).

[2] = tested on: Methicillin resistant Staphylococcus aureus (ATCC 33591); assay: MIC by microbroth dilution, methicillin resistant S. aureus; format: cell-based; conditions: ATCC33591, read-out: Minimum inhibitory concentration (MIC) Methicillin resistant Staphylococcus aureus (ATCC 33591)
Description: as §1

[3] = tested on: Methicillin resistant Staphylococcus aureus (ATCC 33591); assay: MIC in the presence of BSA; format: cell-based; conditions: ATCC33591, 10% BSA
Description: as §1

[4] = Metabolic stability in mouse liver microsomes; format: in vitro ADME
Description: as §1

[5] = tested on: Bacillus subtilis (ΔFabI, ΔFabL; Pxylose SaFabI); assay: Target specificity: MIC in B. subtilis expressing S. aureus FabI under xylose inducible promoter; format: cell-based
Description: To test for target specificity, the MIC was determined in a Bacillus subtilis strain in which the two FabI homologues (FabI and FabL) were deleted and replaced with S. aureus FabI (Sa FabI) under a Xylose inducible promoter. By varying the amount of xylose in the growth medium, the expression of FabI was proportionately modified. Compounds specifically targeting Sa FabI show an increased MIC when higher amounts of FabI are present in the cell (high Xylose concentrations). In contrast, when FabI levels are low, the cell becomes hypersusceptible, reducing the MIC (low Xylose concentrations). […] Shown below are data for target specificity.

[6] = Pharmacokinetic profile in male Swiss albino mice; conditions: mouse, in vivo; for AUC / Cmax / clearance / half-life: intravenous single dose 5 mg/kg body weight; for bioavailability: po
Description: The following compounds were dosed to male Swiss albino mice to determine the pharmacokinetic profiles.

MRSA ATCC33591 = assay: Systemic infection model in mice; format: in vivo
Description: In order to evaluate the in vivo efficacy of the scaffold, we tested representative compounds for activity in the systemic infection model in mice (Antimicrobial Agents and Chemotherapy, 47, 2507-2512, 2003). In this model, a 15× medial lethal dose of the bacteria (MRSA ATCC33591) was administered to mice intraperitoneally. 1 hour later, VT-02-00068 was administered i.v. at doses of 30, 10 and 3 mg/kg body weight. The compound was administered again 4 hours later. A total of 5 doses were administered, i.e. 2 doses on day 0, 2 on day 1 and 1 on day 2. […] The survival was 100, 100 and 65% at 30, 10 and 3 mg/kg body weight respectively.
VT-02-00044 was tested using the same protocol. The compound was dosed at 50 mg/kg body weight for 3 days, 2 doses per day.

[7] = Mutation prevention concentration; format: cell-based
Description: The mutation prevention concentration or the concentration above which mutants are unlikely to be selected, was determined based on published protocols (Antimicrobial Agents and Chemotherapy, 45, 433-438, 2001).

E. coli ATCC 25922 = assay: MIC against non-S. aureus strains; format: cell-based
Description: (§2) A subset of compounds was tested against non-S. aureus strains to determine the Minimum Inhibitory Concentration (MIC) against non-S. aureus species (National committee for Clinical Laboratory Standards, M07-A8, Volume 29, 2009).

E. feacalis ATCC 29212 = assay: MIC against non-S. aureus strains; format: cell-based
Description: as §2

H. influenzae ATCC 49247 = assay: MIC against non-S. aureus strains; format: cell-based
Description: as §2

M. catarrhalis ATCC 8176 = assay: MIC against non-S. aureus strains; format: cell-based
Description: as §2

[8] = tested on: S. epidermidis ATCC 12228; assay: MIC against non-S. aureus strains; format: cell-based
Description: as §2

[9] = tested on: S. haemolyticus ATCC 29970; assay: MIC against non-S. aureus strains; format: cell-based
Description: as §2

S. pneumoniae ATCC 6301 = assay: MIC against non-S. aureus strains; format: cell-based
Description: as §2

[10] = read-out: MIC in the presence of 0.005% Xylose (low Xylose concentration)
[11] = read-out: MIC in the presence of 0.5% Xylose (high Xylose concentration)

SMILES | MIC [1] [ng/mL] | MIC [2] [ng/mL] | MIC [3] [ng/mL] | Metabolic stability (mouse liver microsomes) % of compound remaining after 30 minutes [4] [%] | MIC [5, 10] [ng/mL] | MIC [5, 11] [ng/mL] | AUC [6] [ng·h/mL] | Cmax [6] [ng/mL] | clearance [6] [mL/min/kg] | half-life [6] [h] | bioavailability [6] [%] | Mutation prevention concentration [7] | MIC E. coli ATCC 25922 (E. coli ATCC 25922) [ng/mL] | MIC E. feacalis ATCC 29212 (E. feacalis ATCC 29212) [ng/mL] | MIC H. influenzae ATCC 49247 (H. influenzae ATCC 49247) [ng/mL] | MIC M. catarrhalis ATCC 8176 (M. catarrhalis ATCC 8176) [ng/mL] | MIC S. epidermidis ATCC 12228 [8] [ng/mL] | MIC S. haemolyticus ATCC 29970 [9] [ng/mL] | MIC S. pneumoniae ATCC 6301 (S. pneumoniae ATCC 6301) [ng/mL] | also measured
CCn1c(=O)[nH]c2ncc(/C=C/C(=O)N(C)Cc3cc4ccccc4n3C)cc21 [VT-02-00044, (E)-3-(1-ethyl-2-oxo-2,3-dihydro-1H-imidazo[4,5-b]pyridin-6-yl)-N-methyl-N-((1-methyl-1H-indol-2-yl)methyl)acrylamide] | 500 (≈ 1.28 µM) | 1000 (≈ 2.57 µM) | 2000 | 50 | < 1.9 | 15 | 1040 | 949 | 75.9 | 1.65 | 29 |  |  |  |  |  |  |  |  | Survival (MRSA ATCC33591; 50 mg/kg body weight for 3 days, 2 doses per day): 100%
Cc1c(CN(C)C(=O)/C=C/c2cnc3c(c2)C(C)(C)C(=O)N3)oc2ccccc12 [VT-02-00068, (E)-3-(3,3-dimethyl-2-oxo-2,3-dihydro-1H-pyrrolo[2,3-b]pyridin-5-yl)-N-methyl-N-((3-methylbenzofuran-2-yl)methyl)acrylamide] | 15 (≈ 0.0385 µM) | 15 (≈ 0.0385 µM) | 500 | 21 | < 0.06 | 15 | 10300 | 7850 | 7.83 | 1.82 | 56.1 | 0.5 ug/ml μg/ml | > 16000 | > 16000 | > 16000 | > 16000 | 30 (≈ 0.077 µM) | 250 (≈ 0.642 µM) | > 32000 | Survival (MRSA ATCC33591; 3 mg/kg body weight i.v., 5 doses, mortality observed for 7 days): 65%; Survival (MRSA ATCC33591; 10 mg/kg body weight i.v., 5 doses, mortality observed for 7 days): 100%; Survival (MRSA ATCC33591; 30 mg/kg body weight i.v., 5 doses, mortality observed for 7 days): 100%
CCC1(CC)C(=O)Nc2ncc(/C=C/C(=O)N(C)Cc3oc4ccccc4c3C)cc21 [VT-02-00071, (E)-3-(3,3-diethyl-2-oxo-2,3-dihydro-1H-pyrrolo[2,3-b]pyridin-5-yl)-N-methyl-N-((3-methylbenzofuran-2-yl)methyl)acrylamide] | 15 (≈ 0.0359 µM) | 15 (≈ 0.0359 µM) | 250 | 12 | 0.000477 | 0.06 | 1220 | 1550 | 67.8 | 0.52 | 26 |  |  |  |  |  |  |  |  | 
Cc1c(CN(C)C(=O)/C=C/c2cnc3c(c2)C2(CCC2)C(=O)N3)sc2ccccc12 [VT-02-00073, (E)-N-methyl-N-((3-methylbenzo[b]thiophen-2-yl)methyl)-3-(2′-oxo-1′,2′-dihydrospiro[cyclobutane-1,3′-pyrrolo[2,3-b]pyridine]-5′-yl)acrylamide] | 15 (≈ 0.0359 µM) | 15 (≈ 0.0359 µM) | 250 | 11 | 0.00381 | 0.97 | 7320 | 4380 | 11.1 | 1.89 | 38.5 |  |  |  |  |  |  |  |  | 
CCC1(CC)C(=O)Nc2ncc(/C=C/C(=O)N(C)Cc3sc4ccccc4c3C)cc21 [VT-02-00078, (E)-3-(3,3-diethyl-2-oxo-2,3-dihydro-1H-pyrrolo[2,3-b]pyridin-5-yl)-N-methyl-N-((3-methylbenzo[b]thiophen-2-yl)methyl)acrylamide] | 15 (≈ 0.0346 µM) | 15 (≈ 0.0346 µM) | 250 | 15 | < 2.98e-05 | 1.91e-05 | 1410 |  | 58.5 | 0.32 | 67.1 |  |  |  |  |  |  |  |  | 
Cc1c(CN(C)C(=O)/C=C/c2cnc3c(c2)C2(CCC2)C(=O)N3)c2ccccc2n1C [VT-02-00091, (E)-N-((1,2-dimethyl-1H-indol-3-yl)methyl)-N-methyl-3-(T-oxo-1′,2′-dihydrospiro[cyclobutane-1,3′-pyrrolo[2,3-b]pyridine]-5′-yl)acrylamide] | 15 (≈ 0.0362 µM) | 15 (≈ 0.0362 µM) | 120 | 21 |  | 0.061 |  |  |  |  |  | 0.06 µg/mL | > 16000 | > 16000 | > 16000 | > 16000 | 15 (≈ 0.0362 µM) | 15 (≈ 0.0362 µM) | > 32000 | 
